Reference: article PMC5931096, “A Phase I study of the novel immunomodulatory agent PG545 (pixatimod) in subjects with advanced solid tumours” (British Journal of Cancer, 2018)

What was measured:
[1] = test system: plasma IFNγ, TNFα, IP-10 and MCP-1; assay: Plasma cytokine/chemokine biomarkers (ELISA, array kits); type: in vivo, human
Procedure: Plasma and peripheral blood mononuclear cell (PBMC) samples were obtained at various points for PD assessment with the exception of the 25 mg cohort, where PBMC were not collected. Plasma samples were analysed for the concentration of various markers, including cytokines, chemokines and heparanase using commercial ELISA (LifeSpan Biosciences, Seattle, WA), and array kits (Quansys, Logan, UT).

heparanase = conditions: cited from earlier work

CC(C)CCC[C@@H](C)[C@H]1CC[C@H]2[C@@H]3CC[C@H]4C[C@@H](O[C@@H]5O[C@H](COS(=O)(=O)O)[C@@H](O[C@H]6O[C@H](COS(=O)(=O)O)[C@@H](O[C@H]7O[C@H](COS(=O)(=O)O)[C@@H](O[C@H]8O[C@H](COS(=O)(=O)O)[C@@H](OS(=O)(=O)O)[C@H](OS(=O)(=O)O)[C@H]8OS(=O)(=O)O)[C@H](OS(=O)(=O)O)[C@H]7OS(=O)(=O)O)[C@H](OS(=O)(=O)O)[C@H]6OS(=O)(=O)O)[C@H](OS(=O)(=O)O)[C@H]5OS(=O)(=O)O)CC[C@]4(C)[C@H]3CC[C@]12C [PG545]
Increases in TNFα, IL-6 and IL-8 responses ([1]; 150 mg vs 100 mg cohort averages): strikingly higher at 150 mg
Increase in plasma IFNγ, TNFα, IP-10 (CXCL10) and MCP-1 (CCL2) ([1]; after initial dose): up to 25 fold
Anti-heparanase activity (heparanase): strong anti-heparanase activity
